# Assay results taken from PubChem BioAssay (NCI).
#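 Five concentrations, 48 hours, 96-well plates. GI50 marks 50% less growth. The concentration for full growth arrest is given as TGI.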
# Key:
# Assay in all cases: growth of human tumour cells (NCI), 48 h
# 786-0 renal = tested on: 786-0 renal
# A498 renal = tested on: A498 renal
# A549 NSCLC = tested on: A549 NSCLC
# ACHN renal = tested on: ACHN renal
# BT-549 breast = tested on: BT-549 breast
# CAKI-1 renal = tested on: CAKI-1 renal
# CCRF-CEM leukemia = tested on: CCRF-CEM leukemia
# COLO 205 colon = tested on: COLO 205 colon
# DU-145 prostate = tested on: DU-145 prostate
# EKVX NSCLC = tested on: EKVX NSCLC
# HCC-2998 colon = tested on: HCC-2998 colon
# HCT-116 colon = tested on: HCT-116 colon
# HCT-15 colon = tested on: HCT-15 colon
# HL-60(TB) leukemia = tested on: HL-60(TB) leukemia
# HOP-62 NSCLC = tested on: HOP-62 NSCLC
# HOP-92 NSCLC = tested on: HOP-92 NSCLC
# HS 578T breast = tested on: HS 578T breast
# HT29 colon = tested on: HT29 colon
# IGROV1 ovarian = tested on: IGROV1 ovarian
# K-562 leukemia = tested on: K-562 leukemia
# KM12 colon = tested on: KM12 colon
# LOX IMVI melanoma = tested on: LOX IMVI melanoma
# M14 melanoma = tested on: M14 melanoma
# MALME-3M melanoma = tested on: MALME-3M melanoma
# MCF7 breast = tested on: MCF7 breast
# MDA-MB-231 breast = tested on: MDA-MB-231 breast
# MDA-MB-435 = tested on: MDA-MB-435
# MOLT-4 leukemia = tested on: MOLT-4 leukemia
# NCI-H226 lung = tested on: NCI-H226 lung
# NCI-H23 lung = tested on: NCI-H23 lung
# NCI-H460 lung = tested on: NCI-H460 lung
# NCI-H522 lung = tested on: NCI-H522 lung
# NCI/ADR-RES ovarian = tested on: NCI/ADR-RES ovarian
# OVCAR-3 ovarian = tested on: OVCAR-3 ovarian
# OVCAR-4 ovarian = tested on: OVCAR-4 ovarian
# OVCAR-5 ovarian = tested on: OVCAR-5 ovarian
# OVCAR-8 ovarian = tested on: OVCAR-8 ovarian
# PC-3 prostate = tested on: PC-3 prostate
# RPMI-8226 leukemia = tested on: RPMI-8226 leukemia
# RXF 393 renal = tested on: RXF 393 renal
# SF-268 CNS = tested on: SF-268 CNS
# SF-295 CNS = tested on: SF-295 CNS
# SF-539 CNS = tested on: SF-539 CNS
# SK-MEL-2 melanoma = tested on: SK-MEL-2 melanoma
# SK-MEL-28 melanoma = tested on: SK-MEL-28 melanoma
# SK-MEL-5 melanoma = tested on: SK-MEL-5 melanoma
# SK-OV-3 ovarian = tested on: SK-OV-3 ovarian
# SN12C renal = tested on: SN12C renal
# SNB-19 CNS = tested on: SNB-19 CNS
# SNB-75 CNS = tested on: SNB-75 CNS
# SW-620 colon = tested on: SW-620 colon
# T-47D breast = tested on: T-47D breast
# TK-10 renal = tested on: TK-10 renal
# U251 CNS = tested on: U251 CNS
# UACC-257 melanoma = tested on: UACC-257 melanoma
# UACC-62 melanoma = tested on: UACC-62 melanoma
# UO-31 renal = tested on: UO-31 renal
structure (smiles),measurement,setting,value
COc1cccc2c1[C@H](OC)[C@]13O[C@@]1(C2=O)[C@H](O)[C@H](C)[C@@](O)(C(=O)[C@@H]1O[C@H]1C)[C@@H]3O,GI50,786-0 renal,298 nM
same,TGI,786-0 renal,2060 nM
same,GI50,A498 renal,215 nM
same,TGI,A498 renal,542 nM
same,GI50,A549 NSCLC,297 nM
same,TGI,A549 NSCLC,10700 nM
same,GI50,ACHN renal,283 nM
same,TGI,ACHN renal,820 nM
same,TGI,BT-549 breast,838 nM
same,TGI,CAKI-1 renal,909 nM
same,GI50,CCRF-CEM leukemia,323 nM
same,TGI,CCRF-CEM leukemia,> 100000 nM
same,GI50,COLO 205 colon,239 nM
same,TGI,COLO 205 colon,592 nM
same,TGI,DU-145 prostate,1130 nM
same,GI50,EKVX NSCLC,235 nM
same,TGI,EKVX NSCLC,655 nM
same,GI50,HCC-2998 colon,215 nM
same,TGI,HCC-2998 colon,485 nM
same,TGI,HCT-116 colon,1310 nM
same,GI50,HCT-15 colon,313 nM
same,TGI,HCT-15 colon,1090 nM
same,GI50,HL-60(TB) leukemia,238 nM
same,TGI,HL-60(TB) leukemia,696 nM
same,GI50,HOP-62 NSCLC,316 nM
same,TGI,HOP-62 NSCLC,1790 nM
same,GI50,HOP-92 NSCLC,223 nM
same,TGI,HOP-92 NSCLC,717 nM
same,GI50,HS 578T breast,283 nM
same,TGI,HS 578T breast,962 nM
same,GI50,HT29 colon,321 nM
same,TGI,HT29 colon,1580 nM
same,GI50,IGROV1 ovarian,295 nM
same,TGI,IGROV1 ovarian,894 nM
same,GI50,K-562 leukemia,326 nM
same,TGI,K-562 leukemia,> 100000 nM
same,TGI,KM12 colon,1710 nM
same,GI50,LOX IMVI melanoma,180 nM
same,TGI,LOX IMVI melanoma,351 nM
same,TGI,M14 melanoma,534 nM
same,GI50,MALME-3M melanoma,200 nM
same,TGI,MALME-3M melanoma,436 nM
same,TGI,MCF7 breast,1120 nM
same,GI50,MDA-MB-231 breast,237 nM
same,TGI,MDA-MB-231 breast,657 nM
same,GI50,MDA-MB-435,286 nM
same,TGI,MDA-MB-435,812 nM
same,GI50,MOLT-4 leukemia,335 nM
same,GI50,NCI-H226 lung,275 nM
same,TGI,NCI-H226 lung,802 nM
same,GI50,NCI-H23 lung,243 nM
same,TGI,NCI-H23 lung,611 nM
same,GI50,NCI-H460 lung,326 nM
same,TGI,NCI-H460 lung,1270 nM
same,GI50,NCI-H522 lung,264 nM
same,TGI,NCI-H522 lung,803 nM
same,TGI,NCI/ADR-RES ovarian,1180 nM
same,TGI,OVCAR-3 ovarian,824 nM
same,GI50,OVCAR-4 ovarian,246 nM
same,TGI,OVCAR-4 ovarian,642 nM
same,TGI,OVCAR-5 ovarian,859 nM
same,GI50,OVCAR-8 ovarian,317 nM
same,TGI,OVCAR-8 ovarian,> 100000 nM
same,GI50,PC-3 prostate,304 nM
same,TGI,PC-3 prostate,1110 nM
same,GI50,RPMI-8226 leukemia,303 nM
same,TGI,RPMI-8226 leukemia,866 nM
same,GI50,RXF 393 renal,203 nM
same,TGI,RXF 393 renal,461 nM
same,GI50,SF-268 CNS,295 nM
same,TGI,SF-268 CNS,1030 nM
same,GI50,SF-295 CNS,285 nM
same,TGI,SF-295 CNS,943 nM
same,TGI,SF-539 CNS,698 nM
same,GI50,SK-MEL-2 melanoma,230 nM
same,TGI,SK-MEL-2 melanoma,542 nM
same,GI50,SK-MEL-28 melanoma,271 nM
same,TGI,SK-MEL-28 melanoma,722 nM
same,GI50,SK-MEL-5 melanoma,223 nM
same,TGI,SK-MEL-5 melanoma,507 nM
same,GI50,SK-OV-3 ovarian,345 nM
same,TGI,SK-OV-3 ovarian,2430 nM
same,GI50,SN12C renal,197 nM
same,TGI,SN12C renal,691 nM
same,TGI,SNB-19 CNS,1060 nM
same,TGI,SNB-75 CNS,605 nM
same,GI50,SW-620 colon,306 nM
same,TGI,SW-620 colon,> 36000 nM
same,TGI,T-47D breast,1860 nM
same,GI50,TK-10 renal,261 nM
same,TGI,TK-10 renal,921 nM
same,TGI,U251 CNS,> 33000 nM
same,GI50,UACC-257 melanoma,270 nM
same,TGI,UACC-257 melanoma,818 nM
same,GI50,UACC-62 melanoma,263 nM
same,TGI,UACC-62 melanoma,765 nM
same,TGI,UO-31 renal,800 nM
